Target: T1, human TLR9 (Homo sapiens, UniProt Q9NR96)
T1 construct: host or cells: HEK293 (HEK-Blue hTLR9)
T1 sequence (Q9NR96 26-1032): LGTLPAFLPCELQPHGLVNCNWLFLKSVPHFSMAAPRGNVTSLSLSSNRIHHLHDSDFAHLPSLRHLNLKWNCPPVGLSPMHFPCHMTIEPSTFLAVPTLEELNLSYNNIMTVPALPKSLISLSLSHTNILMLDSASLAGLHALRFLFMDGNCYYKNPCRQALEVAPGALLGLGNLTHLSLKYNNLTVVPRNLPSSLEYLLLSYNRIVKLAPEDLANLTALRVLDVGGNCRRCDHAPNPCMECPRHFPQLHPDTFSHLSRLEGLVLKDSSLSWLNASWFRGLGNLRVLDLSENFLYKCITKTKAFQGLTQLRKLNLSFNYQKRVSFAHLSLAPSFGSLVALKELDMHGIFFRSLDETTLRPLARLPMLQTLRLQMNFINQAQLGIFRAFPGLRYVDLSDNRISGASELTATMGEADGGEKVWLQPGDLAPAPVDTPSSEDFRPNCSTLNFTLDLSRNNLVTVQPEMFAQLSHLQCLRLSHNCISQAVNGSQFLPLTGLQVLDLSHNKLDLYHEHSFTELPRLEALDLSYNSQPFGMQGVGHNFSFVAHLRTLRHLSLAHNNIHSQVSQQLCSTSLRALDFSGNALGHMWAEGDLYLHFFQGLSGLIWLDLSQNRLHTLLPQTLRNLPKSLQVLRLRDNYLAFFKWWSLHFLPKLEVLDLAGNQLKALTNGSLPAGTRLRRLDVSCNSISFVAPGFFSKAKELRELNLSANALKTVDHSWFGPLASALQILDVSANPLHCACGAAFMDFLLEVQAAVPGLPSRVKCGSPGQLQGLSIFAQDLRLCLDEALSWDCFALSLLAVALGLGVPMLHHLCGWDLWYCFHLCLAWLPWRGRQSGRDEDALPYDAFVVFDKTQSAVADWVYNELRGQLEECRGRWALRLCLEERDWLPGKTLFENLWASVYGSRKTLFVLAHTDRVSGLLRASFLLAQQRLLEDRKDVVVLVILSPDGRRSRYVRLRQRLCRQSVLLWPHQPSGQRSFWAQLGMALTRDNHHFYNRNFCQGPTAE
Assay: HEK293-Blue-hTLR-9 cells assay
Type: cell-based
Conditions: HEK293-Blue-hTLR9 cells, ODN2006 stimulation, 20 hrs, SEAP reporter; read-out: HEK/hTLR9 IC50
Text: A stable HEK293-Blue-hTLR-9 cell line was purchased from InvivoGen (Cat. #: hkb-htlr9, San Diego, California, USA). These cells were originally designed for studying the stimulation of human TLR9 by monitoring the activation of NF-κB. A SEAP (secreted embryonic alkaline phosphatase) reporter gene was placed under the control of the IFN-β minimal promoter fused to five NF-κB and AP-1-binding sites. The SEAP was induced by activating NF-κB and AP-1 via stimulating HEK-Blue hTLR9 cells with TLR9 ligands. Therefore the reporter expression was declined by TLR9 antagonist under the stimulation of a ligand, such as ODN2006 (Cat. #: tlrl-2006-1, Invivogen, San Diego, California, USA), for incubation of 20 hrs. The cell culture supernatant SEAP reporter activity was determined using QUANTI-Blue™ kit (Cat. #: rep-qb1, Invivogen, San Diego, California, USA) at a wavelength of 640 nm, a detection medium that turns purple or blue in the presence of alkaline phosphatase.
HEK293-Blue-hTLR9 cells were incubated at a density of 250,000˜450,000 cells/mL in a volume of 170 μL in a 96-well plate in Dulbecco's Modified Eagle's medium (DMEM) containing 4.5 g/L glucose, 50 U/mL penicillin, […], 2 mM L-glutamine, 10% (v/v) heat-inactivated fetal bovine serum with addition of 20 μL test compound in a serial dilution in the presence of final DMSO at 1% and 10 μL of 20 uM ODN2006 in above DMEM, perform incubation under 37° C. in a CO2 incubator for 20 hrs. Then 20 μL of the supernatant from each well was incubated with 180 μL Quanti-blue substrate solution at 37° C. for 2 h and the absorbance was read at 620˜655 nm using a spectrophotometer. The signaling pathway that TLR9 activation leads to downstream NF-κB activation has been widely accepted, and therefore similar reporter assay was modified for evaluating TLR9 antagonist.

Structure (SMILES) | IC50 [nM]
C[C@@H]1CN(c2ccc(C#N)c3ncccc23)C[C@@H]2CC(c3ccc(C[C@@H]4CNCCO4)cc3)CCN21 (stereo in doubt) [Example 25, 5-[(4R,8R,9aS)-4-methyl-8-[4-[[(2R)-morpholin-2-yl]methyl]phenyl]-1,3,4,6,7,8,9,9a-octahydropyrido[1,2-a]pyrazin-2-yl]quinoline-8-carbonitrile] | 78
CO[C@H]1CN(c2ccc([C@@H]3CCN4[C@@H](C3)CN(c3ccc(C#N)c5ncccc35)C[C@H]4C)cn2)C[C@@H]1N [Example 6, 5-[(4R,8R,9aS)-8-[6-[(3S,4S)-3-amino-4-methoxy-pyrrolidin-1-yl]-3-pyridyl]-4-methyl-1,3,4,6,7,8,9,9a-octahydropyrido[1,2-a]pyrazin-2-yl]quinoline-8-carbonitrile] | 87
C[C@@H]1CN(c2ccc(C#N)c3ncccc23)C[C@@H]2C[C@H](c3ccc(N4CC(N)C4)nc3)CCN21 [Example 7, 5-[(4R,8R,9aS)-8-[6-(3-aminoazetidin-1-yl)-3-pyridyl]-4-methyl-1,3,4,6,7,8,9,9a-octahydropyrido[1,2-a]pyrazin-2-yl]quinoline-8-carbonitrile] | 184
CO[C@H]1CN(c2ccc([C@@H]3CCN4[C@@H](C3)CN(c3ccc(C#N)c5ncccc35)C[C@H]4C)cn2)C[C@H]1N [Example 12, 5-[(4R,8R,9aS)-8-[6-[(3R,4S)-3-amino-4-methoxy-pyrrolidin-1-yl]-3-pyridyl]-4-methyl-1,3,4,6,7,8,9,9a-octahydropyrido[1,2-a]pyrazin-2-yl]quinoline-8-carbonitrile] | 66
CO[C@@H]1CN(c2ccc([C@@H]3CCN4[C@@H](C3)CN(c3ccc(C#N)c5ncccc35)C[C@H]4C)cn2)C[C@@H]1N [Example 13, 5-[(4R,8R,9aS)-8-[6-[(3S,4R)-3-amino-4-methoxy-pyrrolidin-1-yl]-3-pyridyl]-4-methyl-1,3,4,6,7,8,9,9a-octahydropyrido[1,2-a]pyrazin-2-yl]quinoline-8-carbonitrile] | 94
CO[C@@H]1CN(c2ccc([C@@H]3CCN4[C@@H](C3)CN(c3ccc(C#N)c5ncccc35)C[C@H]4C)cn2)C[C@H]1N [Example 14, 5-[(4R,8R,9aS)-8-[6-[(3R,4R)-3-amino-4-methoxy-pyrrolidin-1-yl]-3-pyridyl]-4-methyl-1,3,4,6,7,8,9,9a-octahydropyrido[1,2-a]pyrazin-2-yl]quinoline-8-carbonitrile] | 78
C[C@@H]1CN(c2ccc(C#N)c3ncccc23)C[C@@H]2C[C@@H](Oc3cnc(N4CCNCC4)nc3)CCN21 [Example 18, 5-[(4R,8S,9aS)-4-methyl-8-(2-piperazin-1-ylpyrimidin-5-yl)oxy-1,3,4,6,7,8,9,9a-octahydropyrido[1,2-a]pyrazin-2-yl]quinoline-8-carbonitrile] | 60
C[C@@H]1CN(c2ccc(C#N)c3ncccc23)C[C@@H]2C[C@H](c3ccc(N4C[C@@H](N)[C@@H](F)C4)nc3)CCN21 [Example 19, 5-[(4R,8R,9aS)-8-[6-[(3R,4S)-3-amino-4-fluoro-pyrrolidin-1-yl]-3-pyridyl]-4-methyl-1,3,4,6,7,8,9,9a-octahydropyrido[1,2-a]pyrazin-2-yl]quinoline-8-carbonitrile] | 82
C[C@@H]1CN(c2ccc(C#N)c3ncccc23)C[C@@H]2C[C@H](Nc3ccc([C@H]4CNCCO4)cc3)CCN21 [Example 20, 5-[(4R,8R,9aS)-4-methyl-8-[4-[(2S)-morpholin-2-yl]anilino]-1,3,4,6,7,8,9,9a-octahydropyrido[1,2-a]pyrazin-2-yl]quinoline-8-carbonitrile] | 50

The next lines start with the values.

IC50 [nM] | Structure (SMILES)
81 | C[C@@H]1CN(c2ccc(C#N)c3ncccc23)C[C@@H]2C[C@H](c3ccc(N4CCNCC4)nc3)CCN21 (stereo in doubt) [Example 2, 5-[(4R,8R)-4-methyl-8-(6-piperazin-1-yl-3-pyridyl)-1,3,4,6,7,8,9,9a-octahydropyrido[1,2-a]pyrazin-2-yl]quinoline-8-carbonitrile]
< 32 | C[C@@H]1CN(c2ccc(C#N)c3ncccc23)C[C@@H]2C[C@H](NCc3ccc(N4CCNCC4)cc3)CCN21 [Example 1, 5-[(4R,8R,9aS)-4-methyl-8-[(4-piperazin-1-ylphenyl)methylamino]-1,3,4,6,7,8,9,9a-octahydropyrido[1,2-a]pyrazin-2-yl]quinoline-8-carbonitrile]
92 | C[C@@H]1CN(c2ccc(C#N)c3ncccc23)CC2C[C@H](c3ccc(N4CCNCC4)cc3)CCN21 (stereo partly drawn) [Example 3, 5-[(4R,8R)-4-methyl-8-(4-piperazin-1-ylphenyl)-1,3,4,6,7,8,9,9a-octahydropyrido[1,2-a]pyrazin-2-yl]quinoline-8-carbonitrile]
86 | C[C@@H]1CN(c2ccc(C#N)c3ncccc23)C[C@@H]2C[C@H](c3ccc(N4CCNCC4)nc3)CCN21 [Example 4, 5-[(4R,8R,9aS)-4-methyl-8-(6-piperazin-1-yl-3-pyridyl)-1,3,4,6,7,8,9,9a-octahydropyrido[1,2-a]pyrazin-2-yl]quinoline-8-carbonitrile]
< 32 | C[C@@H]1CN(c2ccc(C#N)c3ncccc23)C[C@@H]2C[C@H](N3CC(c4ccc(N5CCNCC5)cc4)C3)CCN21 [Example 9, 5-[(4R,8R,9aS)-4-methyl-8-[3-(4-piperazin-1-ylphenyl)azetidin-1-yl]-1,3,4,6,7,8,9,9a-octahydropyrido[1,2-a]pyrazin-2-yl]quinoline-8-carbonitrile]
90 | C[C@@H]1CN(c2ccc(C#N)c3ncccc23)C[C@@H]2C[C@@H](Oc3ccc(N4CCNCC4)cn3)CCN21 [Example 11, 5-[(4R,8S,9aS)-4-methyl-8-[(5-piperazin-1-yl-2-pyridyl)oxy]-1,3,4,6,7,8,9,9a-octahydropyrido[1,2-a]pyrazin-2-yl]quinoline-8-carbonitrile]
84 | C[C@@H]1CN(c2ccc(C#N)c3ncccc23)C[C@H]2C[C@H](c3ccc(N4CCNCC4)nc3)CCN21 [Example 15, 5-[(4R,8R,9aR)-4-methyl-8-(6-piperazin-1-yl-3-pyridyl)-1,3,4,6,7,8,9,9a-octahydropyrido[1,2-a]pyrazin-2-yl]quinoline-8-carbonitrile]
37 | C[C@@H]1CN(c2ccc(C#N)c3ncccc23)C[C@@H]2C[C@@H](Oc3ccc(N4CCNCC4)nc3)CCN21 [Example 16, 5-[(4R,8S,9aS)-4-methyl-8-[(6-piperazin-1-yl-3-pyridyl)oxy]-1,3,4,6,7,8,9,9a-octahydropyrido[1,2-a]pyrazin-2-yl]quinoline-8-carbonitrile]
< 32 | C[C@@H]1CN(c2ccc(C#N)c3ncccc23)C[C@@H]2C[C@@H](NCc3ccc(N4CCNCC4)cc3)CCN21 [Example 17, 5-[(4R,8S,9aS)-4-methyl-8-[(4-piperazin-1-ylphenyl)methylamino]-1,3,4,6,7,8,9,9a-octahydropyrido[1,2-a]pyrazin-2-yl]quinoline-8-carbonitrile]
86 | C[C@@H]1CN(c2ccc(C#N)c3ncccc23)C[C@@H]2C[C@H](Nc3ccc(C[C@@H]4CNCCO4)cc3)CCN21 [Example 21, 5-[(4R,8R,9aS)-4-methyl-8-[4-[[(2R)-morpholin-2-yl]methyl]anilino]-1,3,4,6,7,8,9,9a-octahydropyrido[1,2-a]pyrazin-2-yl]quinoline-8-carbonitrile]

Reference: patent US12421229B2, “Hydropyrido[1,2-α]pyrazine compounds for the treatment of autoimmune disease” (Hoffmann-La Roche Inc., priority 2019, dated 2025)
